Measurements taken from BindingDB's records for doi:10.1016/j.bmc.2016.01.042 (University of California, 2016).

Target: T1, Polyunsaturated fatty acid lipoxygenase ALOX15 (Homo sapiens, UniProt P16050)
T1 sequence (P16050 whole entry): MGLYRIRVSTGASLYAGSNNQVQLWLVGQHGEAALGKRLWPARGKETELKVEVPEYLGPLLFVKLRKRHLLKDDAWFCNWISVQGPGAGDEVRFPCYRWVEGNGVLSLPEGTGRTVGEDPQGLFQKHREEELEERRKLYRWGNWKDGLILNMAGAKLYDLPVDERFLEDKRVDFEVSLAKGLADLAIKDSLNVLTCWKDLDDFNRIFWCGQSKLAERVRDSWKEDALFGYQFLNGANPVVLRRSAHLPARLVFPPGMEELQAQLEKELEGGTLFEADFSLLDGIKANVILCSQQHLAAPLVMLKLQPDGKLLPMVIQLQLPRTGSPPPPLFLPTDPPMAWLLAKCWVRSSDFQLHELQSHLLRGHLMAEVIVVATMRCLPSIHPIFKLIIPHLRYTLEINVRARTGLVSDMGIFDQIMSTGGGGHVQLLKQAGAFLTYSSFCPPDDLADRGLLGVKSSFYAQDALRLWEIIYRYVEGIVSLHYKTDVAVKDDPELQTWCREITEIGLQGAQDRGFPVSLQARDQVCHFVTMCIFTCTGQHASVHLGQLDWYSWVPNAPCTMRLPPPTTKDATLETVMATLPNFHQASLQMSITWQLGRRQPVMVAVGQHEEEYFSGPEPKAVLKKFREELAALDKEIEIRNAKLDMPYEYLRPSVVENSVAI
Test: Competitive inhibition of N-terminal His6-tagged human 12/15-LOX using arachidonic acid as substrate by Dixon plot analysis

Cc1ccc(O)c(-c2cc(-c3ccccc3C)[nH]n2)c1 [4-methyl-2-[5-(2-methylphenyl)-1H-pyrazol-3-yl]phenol]
Ki: 1 µM
